A value given as a limit tells only on which side of the number the result lay.

By IC50 is commonly meant the midpoint of a concentration-inhibition curve. In general, IC90 refers to the point of the concentration-response curve where the effect stands at 90%.

The nature of this experiment: Inhibitory activity against HIV-1 replication in phytohemagglutininin-activated peripheral blood mononuclear (PHA-PBM) cells. Type of experiment: functional, Homo sapiens.

On to `Nc1ccn(C=C=CCO)c(=O)n1` (stereo in doubt; 1b), for which 800 nM corresponded to half-maximal inhibition (IC50) and it took 3400 nM to reach the 90% level (IC90).
Turning to `Nc1ccn(C=C=CCO)c(=O)n1` (stereo in doubt; 2b), it took 400 nM to reach half-maximal inhibition (IC50). This molecule also registered a concentration for an effect of 90% (IC90) (Homo sapiens) of 1700 nM.
Consider `Nc1ccn(C=C=CCO)c(=O)n1` (stereo in doubt; 3c), for which the IC50 is greater than 10000 nM.

For the origin of these results see ChEMBL document CHEMBL1128302, “Synthesis, absolute configuration, and enantioselectivity of antiretroviral effect of (R)-(-)- and (S)-(+)-cytallene. Lipase-catalyzed enantioselective acylations of (+/-)-N4-acylcytallenes” (J Med Chem, 1995).
